# In patent publication US4965280A, “Antifungal carbinols” (E. I. Du Pont de Nemours and Company, priority 1989, dated 1990):
# Columns and labels:
# REDROOT PIGWEED [1] = experiment: Test F; format: in vivo, Amaranthus retroflexus
# Text: Weed species were planted 3 or 4 per 15-cm diameter pot in Sassafras sandy loam (pH 6.8; 1% OM). Cotton was planted separately in the same sized pot. Postemergence plantings were made 12-16 days prior to treating so plants were in the 2- to 3-leaf stage (5-12 cm tall). Preemergence plantings were made the day before treating. Compounds were sprayed in a suitable non-phytotoxic solvent at 374 l/ha, then after 3 weeks of growth in a greenhouse, plant responses were visually rated on a percent scale where 0=no injury and 100=plant death.
# JET RAPE = experiment: Test E; format: in vivo, Brassica napus cv. Jet Neuf
# ANN. BLUEGRASS = experiment: Test E; format: in vivo, PO annua
# BONANZA BARLEY = experiment: Test E; format: in vivo, Hordeum vulgare cv. Bonanza
# LADY SMARTWEED = experiment: Test E; format: in vivo, Polygonum persicaria
# Text: (§1) Seeds of the following crops and weeds are sown into 15 cm pots containing Sassafras sandy loam soil: wheat (Triticum aestivum cv. Park), barley (Hordeum vulgare cv. Bonanza), sugarbeet (Beta vulgaris cv. USH-11), rapeseed (Brassica napus cv. Jet Neuf), black nightshade (Solanum nigrum), chickweed (Stellaria media), lambsquarter (Chenopodium album), Galium aparine, knotweed (Polygonum aviculare), Kochia scoparia, Matricaria indora, redroot pigweed (Amaranthus retroflexus), smartweed (Polygonum persicaria), speedwell (Veronica persica), wild buckwheat (Polygonum convolvulus), wild mustard (Brassica spp.), wild radish (Raphanus raphanistrum), annual bluegrass (PO annua), annual ryegrass (Lolium multiflorum), blackgrass (Alopercurus mysuroides), green foxtail (Setaria viridis), and wild oats (Avena fatua). Compounds are formulated in a nonphytotoxic solvent and applied to the plants as a foliar spray or applied to the soil surface. Plants are treated at two stages: preemergence, or postemergence when the sugarbeets are at the 2-3 true leaf stage. Plants are grown in a temperature-controlled greenhouse for the duration of the test.
# (§2) Weed control and crop injury are evaluated visually at 3-4 weeks after compound application, using a scale of 0 to 100%, where 0=no injury and 100=complete death of the plant. All plants are rated with respect to untreated plants (checks) grown in the greenhouse under identical conditions to the treated plants.
# BLACKGRASS = experiment: Test E; format: in vivo, Alopercurus mysuroides
# Text: as §1, §2
# PERSN SPEEDWELL = experiment: Test E; format: in vivo, Veronica persica
# WILLMS SOYBEANS = experiment: Test D; format: in vivo, Glycine max
# REDROOT PIGWEED [2] = experiment: Test D; format: in vivo, Amaranthus retroflexus
# GIANT FOXTAIL = experiment: Test D; format: in vivo, Setaria faberii
# FALL PANICUM = experiment: Test D; format: in vivo, Panicum dichotomiflorum
# VELVETLEAF = experiment: Test D; format: in vivo, Abutilon theophrasti
# Description: The Corn and Sorghum Herbicide Test included the following species in both the preemergence and postemergence evaluations:
# Postemergence plantings were grown in Sassafras sandy loam soil. Corn and soybeans were grown in separate 25 cm diameter containers. Sorghum and the seven grass weed species were grown in two 18 cm diameter containers, 4 species per container. The seven broadleaf weed species were also grown in two 18 cm diameter containers, 4 species in one container, 3 species in the second container. One additional planting of corn in an 18 cm diameter container was made. The soil surface of this additional container of corn was covered with the absorbent, perlite, before spray treatment so that test chemicals would enter the plant only via the foliage. The plants were grown 10-21 days, dependent upon the species and then sprayed postemergence with the test chemicals dissolved in a nonpytotoxic solvent.
# Preemergence plantings were grown in fertilized Tama silt loam soil. These plantings are identical to those described in the postemergence section, with the exception of the corn planting having perlite covering the soil surface. These plantings were made the day of or the day before spraying the test chemicals dissolved in a nonphytotoxic solvent.
# Treated plants and controls were maintained in the greenhouse for 2 to 4 weeks. Visual planting response ratings were made on a percentage scale of 0 to 100 in comparison with a control where 0=no injury, and 100=death.
# GREEN FOXTAIL = experiment: Test D; format: in vivo, Setaria viridis
smiles,measurement,setting,value
"C=C(c1ccc(F)cc1)C(O)(Cn1cncn1)c1ccc(F)cc1F (stereo not shown) [Example 4, 2-(2,4-Difluorophenyl)-3-(4-fluorophenyl)-1-(1H-1,2,4-triazol-1-yl)-3-buten-2-ol]",plant response,REDROOT PIGWEED [1]; PREEMERGENCE 0032 GM/HA,50%
same,plant response,REDROOT PIGWEED [1]; PREEMERGENCE 0064 GM/HA,70%
same,plant response,REDROOT PIGWEED [1]; PREEMERGENCE 0125 GM/HA,60%
same,plant response,REDROOT PIGWEED [1]; PREEMERGENCE 0250 GM/HA,100%
same,plant response,REDROOT PIGWEED [1]; PREEMERGENCE 0500 GM/HA,100%
same,plant response,JET RAPE; POSTEMERGENCE 0064 GM/HA,0%
same,plant response,JET RAPE; POSTEMERGENCE 0125 GM/HA,20%
same,plant response,JET RAPE; POSTEMERGENCE 0250 GM/HA,20%
same,plant response,JET RAPE; POSTEMERGENCE 0500 GM/HA,30%
same,plant response,JET RAPE; PREEMERGENCE 0500 GM/HA,40%
same,plant response,ANN. BLUEGRASS; POSTEMERGENCE 0064 GM/HA,0%
same,plant response,ANN. BLUEGRASS; POSTEMERGENCE 0125 GM/HA,20%
same,plant response,ANN. BLUEGRASS; POSTEMERGENCE 0250 GM/HA,40%
same,plant response,ANN. BLUEGRASS; POSTEMERGENCE 0500 GM/HA,60%
same,plant response,ANN. BLUEGRASS; PREEMERGENCE 0500 GM/HA,100%
same,plant response,BONANZA BARLEY; POSTEMERGENCE 0064 GM/HA,20%
same,plant response,BONANZA BARLEY; POSTEMERGENCE 0125 GM/HA,30%
same,plant response,BONANZA BARLEY; POSTEMERGENCE 0250 GM/HA,40%
same,plant response,BONANZA BARLEY; POSTEMERGENCE 0500 GM/HA,60%
same,plant response,BONANZA BARLEY; PREEMERGENCE 0500 GM/HA,100%
same,plant response,LADY SMARTWEED; PREEMERGENCE 0500 GM/HA,100%
same,plant response,BLACKGRASS; POSTEMERGENCE 0064 GM/HA,0%
same,plant response,BLACKGRASS; POSTEMERGENCE 0125 GM/HA,20%
same,plant response,BLACKGRASS; POSTEMERGENCE 0250 GM/HA,20%
same,plant response,BLACKGRASS; POSTEMERGENCE 0500 GM/HA,50%
same,plant response,BLACKGRASS; PREEMERGENCE 0500 GM/HA,90%
same,plant response,PERSN SPEEDWELL; POSTEMERGENCE 0064 GM/HA,20%
same,plant response,PERSN SPEEDWELL; POSTEMERGENCE 0125 GM/HA,70%
same,plant response,PERSN SPEEDWELL; POSTEMERGENCE 0250 GM/HA,100%
same,plant response,PERSN SPEEDWELL; POSTEMERGENCE 0500 GM/HA,100%
same,plant response,PERSN SPEEDWELL; PREEMERGENCE 0500 GM/HA,90%
C=C(c1ccccc1Cl)C(O)(Cn1cncn1)c1ccc(F)cc1F (stereo not shown) [Example 35],plant response,WILLMS SOYBEANS; POSTEMERGENCE 0250 GM/HA,10%
same,plant response,WILLMS SOYBEANS; POSTEMERGENCE 0500 GM/HA,30%
same,plant response,WILLMS SOYBEANS; PREEMERGENCE 0064 GM/HA,0%
same,plant response,WILLMS SOYBEANS; PREEMERGENCE 0125 GM/HA,0%
same,plant response,WILLMS SOYBEANS; PREEMERGENCE 0250 GM/HA,0%
same,plant response,WILLMS SOYBEANS; PREEMERGENCE 0500 GM/HA,0%
same,plant response,REDROOT PIGWEED [2]; POSTEMERGENCE 0250 GM/HA,30%
same,plant response,REDROOT PIGWEED [2]; POSTEMERGENCE 0500 GM/HA,70%
same,plant response,REDROOT PIGWEED [2]; PREEMERGENCE 0064 GM/HA,0%
same,plant response,REDROOT PIGWEED [2]; PREEMERGENCE 0125 GM/HA,0%
same,plant response,REDROOT PIGWEED [2]; PREEMERGENCE 0250 GM/HA,50%
same,plant response,REDROOT PIGWEED [2]; PREEMERGENCE 0500 GM/HA,98%
same,plant response,GIANT FOXTAIL; POSTEMERGENCE 0250 GM/HA,0%
same,plant response,GIANT FOXTAIL; POSTEMERGENCE 0500 GM/HA,60%
same,plant response,GIANT FOXTAIL; PREEMERGENCE 0064 GM/HA,0%
same,plant response,GIANT FOXTAIL; PREEMERGENCE 0125 GM/HA,50%
same,plant response,GIANT FOXTAIL; PREEMERGENCE 0250 GM/HA,80%
same,plant response,GIANT FOXTAIL; PREEMERGENCE 0500 GM/HA,100%
same,plant response,FALL PANICUM; PREEMERGENCE 0064 GM/HA,0%
same,plant response,FALL PANICUM; PREEMERGENCE 0125 GM/HA,50%
same,plant response,FALL PANICUM; PREEMERGENCE 0250 GM/HA,80%
same,plant response,FALL PANICUM; PREEMERGENCE 0500 GM/HA,100%
same,plant response,VELVETLEAF; POSTEMERGENCE 0250 GM/HA,60%
same,plant response,VELVETLEAF; POSTEMERGENCE 0500 GM/HA,90%
same,plant response,VELVETLEAF; PREEMERGENCE 0064 GM/HA,60%
same,plant response,VELVETLEAF; PREEMERGENCE 0125 GM/HA,70%
same,plant response,VELVETLEAF; PREEMERGENCE 0250 GM/HA,100%
same,plant response,VELVETLEAF; PREEMERGENCE 0500 GM/HA,100%
same,plant response,GREEN FOXTAIL; POSTEMERGENCE 0250 GM/HA,0%
same,plant response,GREEN FOXTAIL; POSTEMERGENCE 0500 GM/HA,40%
same,plant response,GREEN FOXTAIL; PREEMERGENCE 0064 GM/HA,30%
same,plant response,GREEN FOXTAIL; PREEMERGENCE 0125 GM/HA,70%
same,plant response,GREEN FOXTAIL; PREEMERGENCE 0250 GM/HA,80%
same,plant response,GREEN FOXTAIL; PREEMERGENCE 0500 GM/HA,100%
C=C(c1ccc(F)cc1)C(O)(Cn1cncn1)c1ccccc1F (stereo not shown) [Example 644],plant response,JET RAPE; POSTEMERGENCE 0064 GM/HA,0%
same,plant response,JET RAPE; POSTEMERGENCE 0125 GM/HA,0%
same,plant response,JET RAPE; POSTEMERGENCE 0250 GM/HA,0%
same,plant response,JET RAPE; POSTEMERGENCE 0500 GM/HA,30%
same,plant response,JET RAPE; PREEMERGENCE 0500 GM/HA,20%
same,plant response,ANN. BLUEGRASS; POSTEMERGENCE 0064 GM/HA,20%
same,plant response,ANN. BLUEGRASS; POSTEMERGENCE 0125 GM/HA,50%
same,plant response,ANN. BLUEGRASS; POSTEMERGENCE 0250 GM/HA,50%
same,plant response,ANN. BLUEGRASS; POSTEMERGENCE 0500 GM/HA,80%
same,plant response,ANN. BLUEGRASS; PREEMERGENCE 0500 GM/HA,80%
same,plant response,BONANZA BARLEY; POSTEMERGENCE 0064 GM/HA,0%
same,plant response,BONANZA BARLEY; POSTEMERGENCE 0125 GM/HA,20%
same,plant response,BONANZA BARLEY; POSTEMERGENCE 0250 GM/HA,20%
same,plant response,BONANZA BARLEY; POSTEMERGENCE 0500 GM/HA,40%
same,plant response,BONANZA BARLEY; PREEMERGENCE 0500 GM/HA,50%
same,plant response,LADY SMARTWEED; POSTEMERGENCE 0064 GM/HA,0%
same,plant response,LADY SMARTWEED; POSTEMERGENCE 0125 GM/HA,100%
same,plant response,LADY SMARTWEED; POSTEMERGENCE 0250 GM/HA,100%
same,plant response,LADY SMARTWEED; POSTEMERGENCE 0500 GM/HA,100%
same,plant response,BLACKGRASS; POSTEMERGENCE 0064 GM/HA,0%
same,plant response,BLACKGRASS; POSTEMERGENCE 0125 GM/HA,0%
same,plant response,BLACKGRASS; POSTEMERGENCE 0250 GM/HA,30%
same,plant response,BLACKGRASS; POSTEMERGENCE 0500 GM/HA,50%
same,plant response,BLACKGRASS; PREEMERGENCE 0500 GM/HA,20%
same,plant response,PERSN SPEEDWELL; POSTEMERGENCE 0064 GM/HA,0%
same,plant response,PERSN SPEEDWELL; POSTEMERGENCE 0125 GM/HA,20%
same,plant response,PERSN SPEEDWELL; POSTEMERGENCE 0250 GM/HA,40%
same,plant response,PERSN SPEEDWELL; POSTEMERGENCE 0500 GM/HA,80%
same,plant response,PERSN SPEEDWELL; PREEMERGENCE 0500 GM/HA,50%
